A word on the melting point: it is the temperature, or range, at which the solid turns liquid. What is called IC50 is the concentration that gives 50% inhibition. A higher IC50 goes with a need for much substance.

Data set [1] deals with A549 cells (human lung carcinoma cell line). The data set is described as follows: A549 cell proliferation MTT assay. The format is cell-based. Conditions: 120 h, 5 days incubation, MTT readout at 550 nm. Here is the method: A549 cells (human lung carcinoma cell line) were cultivated in RPMI 1640, 2.5% FCS, 2 mM glutamine, 100 u/ml Penicillin, 100 μg/ml Streptomycin. For the assay the cells were seeded in 384 well plates, 900 cells per well, in the same medium. The next day compounds (dissolved 10 mM in DMSO) were added in various concentrations ranging from 3 μM to 0.15 nM (10 concentrations, 1:3 diluted). After 5 days the MTT assay was done mainly according to the instructions of the manufacturer (Cell proliferation kit I, MTT, from Roche Molecular Biochemicals). In brief, MTT labeling reagent was added to a final concentration of 0.5 mg/ml, added and incubated for 4 hrs at 37 C, 5% CO2. During this incubation time purple formazan crystals are formed. After addition of the solubilization solution (20% SDS in 0.02 M HCl) the plates were incubated overnight at 37° C., 5% CO2.
After careful mixing the plates were measured in Victor 2 (scanning multiwell spectrophotometer, Wallac) at 550 nm.
A decrease in number of living cells results in a decrease in the total metabolic activity in the sample. The decrease directly correlates to the amount of purple color resulting from the solubilization of the purple formazan crystals.
A549: 900 cells in 60 μl per well of 384 well plate (Greiner) • Medium: RPMI 1640, 2.5% FCS, glutamine, pen/strep. • Incubate 1 day at 37° C.
Induction: • Dilution of compound in DMSO: 3 μl 10 mM+27 μl DMSO, dilute 1:3 • Add 2 μl of compound dilution row to 95 μl of medium • Add 10 μl of compound dilution to 60 μl medium in test plate ? 0.3% DMSO per well • Incubate 120 h (5 days) at 37° C., 5% CO2
Analysis: • Add 7 μl MTT (5 mg/ml/well), incubate 4 h at 37° C. • Add 30 μl lysis buffer (20% SDS, 0.04 N HCl) per well • Incubate overnight at 37° C.
Measurement: • Victor 2; 550 nm • Determination of IC50 was done using XL-fit.
A general note: Formazan colour is commonly taken as a measure of viable cells.

The compound `COc1ccc(/C=C/c2nc(COc3ccc(-c4nc(Cn5ccnn5)co4)cc3)co2)cc1` [Example 1, 1-[2-(4-{2-[(E)-2-(4-Methoxy-phenyl)-vinyl]-oxazol-4-ylmethoxy}-phenyl)-oxazol-4-ylmethyl]-1H-[1,2,3]triazole] displayed a melting point of 178 °C.

Take `FC(F)(F)Oc1ccc(/C=C/c2nc(COc3ccc(-c4nc(Cn5ccnn5)co4)cc3)co2)cc1` [Example 2, 1-[2-(4-{2-[(E)-2-(4-Trifluoromethoxy-phenyl)-vinyl]-oxazol-4-ylmethoxy}-phenyl) -oxazol-4-ylmethyl]-1H-[1,2,3]triazole]: the melting point lay within 166 to 172 °C. Besides, the IC50 in data set [1] was found to be 46 nM.

With `FC(F)(F)Sc1ccc(/C=C/c2nc(COc3ccc(-c4nc(Cn5ccnn5)co4)cc3)co2)cc1` [Example 3, 1-[2-(4-{2-[(E)-2-(−4-Trifluoromethylsulfanyl-phenyl)-vinyl]-oxazol-4-ylmethoxy}-phenyl)-oxazol-4-ylmethyl]-1H-[1,2,3]triazole], the melting point fell in the range of 172 to 173 °C. In data set [1], the IC50 turned out to be 46 nM.

`FC(F)(F)c1ccc(/C=C/c2nc(COc3ccc(-c4nc(Cn5ccnn5)co4)cc3)co2)cc1` [Example 4, 1-[2-(4-{2-[(E)-2-(4-Trifluoromethyl-phenyl)-vinyl]-oxazol-4-ylmethoxy}-phenyl) -oxazol-4-ylmethyl]-1H-[1,2,3]triazole] came in with a melting point of 170 °C. Moreover, in data set [1], the IC50 amounted to 45 nM.

For the compound `Clc1ccc(/C=C/c2nc(COc3ccc(-c4nc(Cn5ccnn5)co4)cc3)co2)cc1` [Example 5, 1-[2-(4-{2-[(E)-2-(4-Chloro-phenyl)-vinyl]-oxazol-4-ylmethoxy}-phenyl)-oxazol-4-ylmethyl]-1H-[1,2,3]triazole], the melting point fell in the range of 208 to 210 °C. Besides, it took 69 nM to reach half-maximal inhibition in data set [1] (IC50).

`Fc1cc(C(F)(F)F)ccc1/C=C/c1nc(COc2ccc(-c3nc(Cn4ccnn4)co3)cc2)co1` [Example 6, 1-[2-(4-{2-[(E)-2-(2-Fluoro-4-trifluoromethyl-phenyl)-vinyl]-oxazol-4-ylmethoxy}-phenyl)-oxazol-4-ylmethyl]-1H-[1,2,3]triazole] yielded a melting point of 152 to 154 °C. This compound had an IC50 in data set [1] of 7 nM.

`FC(F)(F)c1ccc(/C=C/c2nc(COc3ccc(-c4nc(Cn5ccnn5)cs4)cc3)co2)cc1` [Example 7, 1-[2-(4-{2-[(E)-2-(4-Trifluoromethyl-phenyl)-vinyl]-oxazol-4-ylmethoxy}-phenyl) -thiazol-4-ylmethyl]-1H-[1,2,3]triazole] yielded a melting point of 163 to 165 °C. Besides, the IC50 in data set [1] amounted to 37 nM.

The compound `Fc1cc(C(F)(F)F)ccc1/C=C/c1nc(COc2ccc(-c3nc(Cn4ccnn4)cs3)cc2)co1` [Example 8, 1-[2-(4-{2-[(E)-2-(2-Fluoro-4-trifluoromethyl-phenyl)-vinyl]-oxazol-4-ylmethoxy}-phenyl)-thiazol-4-ylmethyl]-1H-[1,2,3]triazole] registered a melting point of 180 to 182 °C. This compound also displayed an IC50 in data set [1] of 70 nM.

Take `Fc1cc(Cl)ccc1/C=C/c1nc(COc2ccc(-c3nc(Cn4ccnn4)co3)cc2)co1` [Example 9, 1-[2-(4-{2-[(E)-2-(4-Chloro-2-fluoro-phenyl)-vinyl]-oxazol-4-ylmethoxy}-phenyl)oxazole-4-ylmethyl]-1H-[1,2,3]triazole]: the melting point lay in the range of 193 to 194 °C. The compound further yielded an IC50 in data set [1] of 11 nM.

The compound `FC(F)(F)c1ccc(/C=C/c2nc(COc3ccc(-c4nc(Cn5ccnn5)co4)cc3)cs2)cc1` [Example 10, 1-[2-(4-{2-[(E)-2-(4-Trifluoromethyl-phenyl)-vinyl]-thiazol-4-ylmethoxy}-phenyl) -oxazol-4-ylmethyl]-1H-[1,2,3]triazole] displayed a melting point of 179 to 181 °C. Moreover, in data set [1], the IC50 was 60 nM.

Compound `FC(F)(F)c1ccc(/C=C/c2nc(COc3ccc(-c4nc(Cn5ccnn5)cs4)cc3)cs2)cc1` [Example 11, 1-[2-(4-{2-[(E)-2-(4-Trifluoromethyl-phenyl)-vinyl]-thiazol-4-ylmethoxy}-phenyl) -thiazole-4-ylmethyl]-1H-[1,2,3]triazole] had a melting point of 146 to 148 °C.

As for `Fc1cc(C(F)(F)F)ccc1/C=C/c1nc(COc2ccc(-c3nc(Cn4ccnc4)cs3)cc2)co1` [Example 12, 2-[(E)-2-(2-Fluoro-4-trifluoromethyl-phenyl)-vinyl]-4-[4-(4-imidazol-1-ylmethyl-thiazole-2-yl)-phenoxymethyl]-oxazole], the melting point lay in the range of 133 to 135 °C.

The compound `Fc1cc(C(F)(F)F)ccc1/C=C/c1nc(COc2ccc(-c3nc(Cn4ccnc4)co3)cc2)co1` [Example 13, 2-[(E)-2-(2-Fluoro-4-trifluoromethyl-phenyl)-vinyl]-4-[4-(4-imidazol-1-ylmethyl-oxazol-2-yl)-phenoxymethyl]-oxazole] gave a melting point of 150 to 153 °C.

Regarding `Fc1cc(Cl)ccc1/C=C/c1nc(COc2ccc(-c3nc(Cn4ccnc4)co3)cc2)co1` [Example 14, 2-[(E)-2-(2-Fluoro-4-chloro-phenyl)-vinyl]-4-[4-(4-imidazol-1-ylmethyl-oxazol-2-yl)phenoxymethyl]-oxazole], the melting point lay in the range of 166 to 167 °C.

`[O-][S+](c1ccc(/C=C/c2nc(COc3ccc(-c4nc(Cn5ccnn5)co4)cc3)co2)cc1)C(F)(F)F` (stereo not shown) [Example 15, 1-[2-(4-{2-[(E)-2-(−4-Trifluoromethylsulfinyl-phenyl)-vinyl]-oxazol-4-ylmethoxy}-phenyl)-oxazol-4-ylmethyl]-1H-[1,2,3]triazole] had a melting point of 167 to 169 °C.

Regarding `FC(F)(F)Sc1ccc(/C=C/c2nc(COc3ccc(-c4nc(Cn5ccnc5)co4)cc3)co2)cc1` [Example 16, 1-[2-(4-{2-[(E)-2-(−4-Trifluoromethylsulfanyl-phenyl)-vinyl]-oxazol-4-ylmethoxy}-phenyl)-oxazol-4-ylmethyl]-1H-imidazole], the melting point lay in the range of 144 to 145 °C.

For the compound `[O-][S+](c1ccc(/C=C/c2nc(COc3ccc(-c4nc(Cn5ccnc5)co4)cc3)co2)cc1)C(F)(F)F` (stereo not shown) [Example 17, 1-[2-(4-{2-[(E)-2-(−4-Trifluoromethylsulfinyl-phenyl)-vinyl]-oxazol-4-ylmethoxy}-phenyl)-oxazol-4-ylmethyl]-1H-imidazole], the melting point was 134 to 136 °C.

`OCCc1nccn1Cc1coc(-c2ccc(OCc3coc(/C=C/c4ccc(Cl)cc4F)n3)cc2)n1` [Example 18, 2-{1-[2-(4-{2-[(E)-2-(4-Chloro-2-fluoro-phenyl)-vinyl]-oxazol-4-ylmethoxy}-phenyl)-oxazole-4-ylmethyl]-1H-imidazol-2-yl}-ethanol] came in with a melting point of 170 to 172 °C.

Take `FS(F)(F)(F)(F)c1ccc(/C=C/c2nc(COc3ccc(-c4nc(Cn5ccnn5)co4)cc3)co2)cc1` [Example 19, 1-[2-(4-{2-[(E)-2-(4-Pentafluorosulfanyl-phenyl)-vinyl]-oxazol-4-ylmethoxy}-phenyl) -oxazol-4-ylmethyl]-1H-[1,2,3]triazole]: the melting point was 172 to 174 °C.

Values taken from patent publication US7259262B2, “Arylazole derivatives, their manufacture and use as pharmaceutical agents” (Hoffmann-La Roche Inc., priority 2003, dated 2007).
